Here are results for one molecule from US8101761B2, “(E)-N-{3-[1-(8-fluoro-11H-10-OXA-1-AZA-dibenzo [A,D] cyclohepten-5ylidene)-propyl]-phenyl}-methanesulfonamide as glucocorticoid receptor modulator for the treatment of rheumatoid arthritis” (Eli Lilly and Company, priority 2008, dated 2012).

The target in assay [1] is T1, human AR (androgen receptor) (Homo sapiens, UniProt P10275).
T1 construct: expressed in transfected cells; host or cells: HEK293 (293-AR lysate)
T1 sequence (P10275 1-920): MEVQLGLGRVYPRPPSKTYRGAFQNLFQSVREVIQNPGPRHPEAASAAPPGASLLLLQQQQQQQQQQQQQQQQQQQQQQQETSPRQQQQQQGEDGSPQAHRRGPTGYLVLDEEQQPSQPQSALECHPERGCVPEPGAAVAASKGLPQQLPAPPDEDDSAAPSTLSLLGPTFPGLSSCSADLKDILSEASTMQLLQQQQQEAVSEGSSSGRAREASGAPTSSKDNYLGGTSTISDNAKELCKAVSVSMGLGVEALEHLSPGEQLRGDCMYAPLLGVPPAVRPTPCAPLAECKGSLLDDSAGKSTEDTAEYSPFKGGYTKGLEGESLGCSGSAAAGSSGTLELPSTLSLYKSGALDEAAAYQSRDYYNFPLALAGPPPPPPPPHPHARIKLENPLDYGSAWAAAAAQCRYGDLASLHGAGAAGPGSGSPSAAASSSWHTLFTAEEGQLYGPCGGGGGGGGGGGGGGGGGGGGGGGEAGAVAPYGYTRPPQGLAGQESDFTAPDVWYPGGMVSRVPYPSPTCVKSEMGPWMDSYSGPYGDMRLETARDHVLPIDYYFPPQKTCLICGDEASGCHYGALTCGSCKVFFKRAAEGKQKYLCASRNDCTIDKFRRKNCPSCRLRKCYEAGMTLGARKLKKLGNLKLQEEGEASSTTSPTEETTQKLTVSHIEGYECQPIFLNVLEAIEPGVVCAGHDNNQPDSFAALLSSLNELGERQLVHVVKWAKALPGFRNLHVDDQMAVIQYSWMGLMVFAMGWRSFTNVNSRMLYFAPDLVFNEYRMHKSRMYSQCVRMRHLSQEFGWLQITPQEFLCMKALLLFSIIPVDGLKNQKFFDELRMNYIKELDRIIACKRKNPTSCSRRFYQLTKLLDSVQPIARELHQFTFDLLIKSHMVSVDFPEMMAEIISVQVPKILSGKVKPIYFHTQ
In words: Nuclear hormone receptor competition binding assay, AR. The following applies: HEK293 lysate overexpressing human AR, [3H]-methyltrienolone; mean of n=7. The method, then:
Cell lysates from human embryonic kidney HEK293 cells overexpressing human GR (glucocorticoid receptor), AR (androgen receptor), MR (mineralocorticoid receptor), or PR (progesterone receptor) are used for receptor-ligand competition binding assays to determine Ki values.
Briefly, steroid receptor competition binding assays are run in a buffer containing 20 mM Hepes buffer (pH=7.6), 0.2 mM EDTA, 75 mM NaCl, 1.5 mM MgCl2, 20% glycerol, 20 mM sodium molybdate, 0.2 mM DTT (dithiothreitol), 20 μg/ml aprotinin and 20 μg/ml leupeptin. Typically, steroid receptor binding assays include radio-labeled ligands, such as 0.3 nM [^3H]-dexamethasone for GR binding, 0.36 nM [^3H]-methyltrienolone for AR binding, 0.25 nM [^3H]-aldosterone for MR binding, and 0.29 nM [^3H]-methyltrienolone for PR binding, and either 20 μg 293-GR lysate, 22 μg 293-AR lysate, 20 μg 293-MR lysate or 40 μg 293-PR lysate per well. Assays are typically run in 96-well format. Competing test compounds are added at various concentrations ranging from about 0.01 nM to 10 μM. Non-specific binding is determined in the presence of 500 nM dexamethasone for GR binding, 500 nM aldosterone for MR binding, or 500 nM methyltrienolone for AR and PR binding. […] After an incubation of 2 hours, plates are read in a Wallac Microbeta counter. […]

Assay [2] concerns carrageenan-induced paw edema in male Sprague-Dawley rats. Kind of assay: Carrageenan-induced paw edema (CPE) model. It counts as in vivo. The following applies: rat, oral gavage 2 h before carrageenan, paws taken 3 h after, mean of 5 determinations. From the text:
Carrageenans are a group of polysaccharides which can induce an acute inflammatory response in animals. Cardinal signs of inflammation including edema, hyperalgesia and erythema are developed in the injection site immediately following injection. The CPE model is a recognized model of inflammation and can be used to evaluate the anti-inflammatory effects of glucocorticoid receptor ligands.
To evaluate the anti-inflammatory effects of Compound (I), the compound is formulated in a vehicle comprising 0.5% carboxymethyl cellulose and 0.25% Tween 80 then administered orally via gavage to male Sprague-Dawley rats (180-200 g). For comparison, prednisolone may be administered orally in the same vehicle. Two hours later, 1% carrageenan in 50 μl of 0.9% pyrogen free saline is injected into the subplantar regions of the right hind paw. Rats are euthanized by CO2 at 3 hours after the carrageenan injection. Paws are removed then weighed using a microbalance. Paws are then dissected by making several cuts on the paw surface and immediately immersing into liquid nitrogen until frozen. Frozen paws are then centrifuged to extract the exudates. Exudate levels of IL-1β, a cytokine generated during the inflammatory response is then measured by ELISA according to manufacturers instructions. Total paw protein is also measured using a protein assay kit and the absolute level of IL-1β is normalized to yield a concentration value of ng IL-1β/mg total protein.

Read-outs that look alike come from different tables or passages of the source.

Turning to `CC/C(=C1\c2ccc(F)cc2OCc2ncccc21)c1cccc(NS(C)(=O)=O)c1` [Compound (I), (E)-N-{3-[1-(8-Fluoro-11H-10-oxa-1-aza-dibenzo[a,d]cyclohepten-5-ylidene)-propyl]-phenyl}-methanesulfonamide], in assay [1], the inhibition constant Ki (commonly a dissociation constant, usually derived from enzyme kinetics or from competition with a known ligand) was approximately 6.7 nM. Moreover, the ED50 (usually the midpoint of the dose-response relation) in assay [2] (read-out: ED50, inhibition of carrageenan induced paw weight gain) was approximately 2.8 mg/kg; in assay [2] (read-out: ED50, reduction of paw exudate levels of IL-1β), approximately 3.2 mg/kg.
